Results taken from patent US20170044232A1, “MUTANT SMOOTHENED AND METHODS OF USING THE SAME” (GENENTECH, INC., priority 2014, published 2017).
“Also recorded” adds a separate entry of the source.

Assays:
SMO-A459V = molecular target: T1, SMO-A459V (Homo sapiens, UniProt Q99835, A459V); experiment: Gli-luciferase based Hh reporter assay; type: cell-based; conditions: C3H10T½ cells
T1 construct: expressed in transfected cells; host or cells: C3H10T1/2 cells
Description: (§1) SMO mutants were generated in pRK5-SMO vectors as described (Dijkgraaf et al., 2011; Yauch et al., 2009) and were either utilized in Gli-luciferase reporter assays as described (Dijkgraaf et al., 2011) or cloned into lentiviral vectors for transduction of primary CGNP cultures. Proliferation was assayed using methyl-[3H]-thymidine incorporation (Kool et al., 2014).
C3H10T½ cells (ATCC) were seeded into six-well plates at 1.75×10E5 cells/well in DMEM High Glucose with 4 mM glutamine, 10 mM Hepes pH 7.2 and 10% FBS. After 16 h cells were transfected with 400 ng of expression construct, 400 ng of 9×-Gli-BS and 200 ng of pRL-TK per well using GeneJuice Transfection Reagent (Novagen). For the PTCH1 inhibition experiments, cells were transfected with 200 ng SMO expression construct and an additional 200 ng of DNA containing varying ratios of PTCH1 to empty vector. Six hours later, cells from one well were trypsinized and redistributed over four wells of a 12-well plate. After 16 hours the FBS content of the culture medium was reduced to 0.5% to induce formation of primary cilia, and small molecule Hh inhibitors were added at indicated concentrations. Firefly luciferase activity was determined 24 hours later with the Dual-Glo Luciferase Assay System (Promega) and read using a Wallac EnVision plate reader (Perkin Elmer). […]

SMO E518K = SMO E518K (Homo sapiens, UniProt Q99835, E518K); conditions: cited from earlier work
SMO L515A = SMO L515A (Homo sapiens, UniProt Q99835, L515A); conditions: 1 mM vismodegib; cited from earlier work
SMO E518A = SMO E518A (Homo sapiens, UniProt Q99835, E518A); conditions: cited from earlier work
[1] = system: SMOW535L expressing CGNPs; experiment: PPT CGNP proliferation, methyl-[3H]-thymidine incorporation; type: cell-based, mice; conditions: SMOW535L (FIG. 15D)
Description: (§2) It has previously been noted that Hh-driven tumor cells rapidly lose their Hh pathway dependence during culturing (Sasai et al., 2006). However, CGNPs proliferate in vivo in a Hh dependent manner and maintain their Hh pathway dependence in culture for a finite period (Wechsler-Reya and Scott, 1999). CGNPs isolated from Ptch1loxp/loxp Tp53loxp/loxp Rosa26LSL-tdTomato (PPT) pups were infected with lentiviral constructs expressing a SMO variant together with an enhanced green fluorescent protein (eGFP)-Cre fusion protein (FIG. 12C). The Cre recombinase induces loss of Ptch1 and thus ensures that only transduced CGNPs can proliferate in the absence of exogenous Sonic hedgehog ligand (SHH; FIG. 11D). […] Proliferation by methyl-[3H]-thymidine incorporation was monitored, while Cre-dependent tandem dimer (td) Tomato expression enabled visualization and quantification of infected cells.
as §1
(§3) Cerebella from post-natal day 5-7 Ptch1^loxp/loxp Rosa26^LSL.tdTomato Tp53^loxp/loxp mice were dissociated in 0.05% Trypsin for 10 min at 37° C. Cells were collected by centrifugation at 514×g for 10 min at 4° C., resuspended in CGNP media (Neurobasal medium (Life Technologies) containing 1×B27 (without vitamin A; Life Technologies), 0.45% glucose (Sigma Aldrich), 25 mM KCl, 0.4% bovine serum albumin (Sigma Aldrich), 2 mM glutamine, 100 U/ml Penicillin (Life Technologies), 100 μg/ml Streptomycin (Life Technologies), 200 ng/ml octylated recombinant SHH) and filtered through a 0.45 μm filter (Falcon). Cells were plated in poly-D-lysine coated 6-well plates (Corning) at 5×10E5 cells/well and infected with lentivirus at a multiplicity of infection (MOI) of 1. After 24 hr, cells were harvested by trypsinization, collected in CGNP media and replated for downstream applications.
(§4) To examine the effects of HPIs on proliferation, virally transduced CGNPs were plated in poly-D-lysine-coated 96-well plates (Corning) at 25,000 cells/well in CGNP media without SHH. […] After 24 hr, cells were pulsed with 1 μCi/ml methyl-[^3H]-thymidine (Amersham/GE Healthcare) and cultured for an additional 16-24 hr. Cells were harvested onto 96-well filter plates (Perkin Elmer) using a Filtermate Cell Harvester (Perkin Elmer), and incorporated radioactivity was quantified by liquid scintillation spectrophotometry on a TopCount NXT (PerkinElmer).

[2] = system: PPT CGNPs infected with SMO DBP mutants; experiment: as above; type: cell-based, mice; conditions: all DBP mutations; >1 μM vismodegib (FIG. 12D)
Description: as §2, §1, §3, §4

[3] = system: SMO-A459V expressing CGNPs; experiment: as above; type: cell-based, mice; conditions: SMO-A459V (FIG. 15D)
Description: as §2, §1, §3, §4

advanced BCC = conditions: majority of patients; complete and partial responses (Sekulic et al., 2012); cited from earlier work
[4] = system: PPT CGNPs expressing vismodegib-resistant SMO mutants; experiment: PPT CGNP proliferation, methyl-[3H]-thymidine incorporation; type: cell-based, mice; conditions: 1 μM JQ1 (FIG. 16B)
Description: as §2, §1, §3, §4

T1 sequence (Q99835 28-787 A459V): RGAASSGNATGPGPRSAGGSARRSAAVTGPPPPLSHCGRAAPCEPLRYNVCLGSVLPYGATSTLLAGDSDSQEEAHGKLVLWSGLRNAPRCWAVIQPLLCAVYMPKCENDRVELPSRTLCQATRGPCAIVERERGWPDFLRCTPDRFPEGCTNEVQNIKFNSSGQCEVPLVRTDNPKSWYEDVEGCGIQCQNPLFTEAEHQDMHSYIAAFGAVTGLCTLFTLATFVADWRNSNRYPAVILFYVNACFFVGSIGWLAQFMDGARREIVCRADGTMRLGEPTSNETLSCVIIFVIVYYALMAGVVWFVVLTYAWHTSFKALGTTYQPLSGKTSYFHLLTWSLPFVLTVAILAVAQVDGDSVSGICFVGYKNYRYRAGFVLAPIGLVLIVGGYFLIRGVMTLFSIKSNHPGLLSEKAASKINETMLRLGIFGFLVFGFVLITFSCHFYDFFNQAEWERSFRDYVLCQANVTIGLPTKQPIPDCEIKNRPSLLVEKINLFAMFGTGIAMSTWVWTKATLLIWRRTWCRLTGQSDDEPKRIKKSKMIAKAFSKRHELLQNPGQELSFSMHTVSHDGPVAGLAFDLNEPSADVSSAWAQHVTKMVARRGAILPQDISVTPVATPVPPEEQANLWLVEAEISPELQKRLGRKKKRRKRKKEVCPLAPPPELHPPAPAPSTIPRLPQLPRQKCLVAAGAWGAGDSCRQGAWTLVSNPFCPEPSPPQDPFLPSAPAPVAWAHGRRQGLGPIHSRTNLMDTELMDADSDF
SMO L515A, sequence (Q99835 28-787 L515A): as the sequence (Q99835 28-787 A459V) above, with V432A, L488A counted along it
SMO E518K, sequence (Q99835 28-787 E518K): as the sequence (Q99835 28-787 A459V) above, with V432A, E491K counted along it
SMO E518A, sequence (Q99835 28-787 E518A): as the sequence (Q99835 28-787 A459V) above, with V432A, E491A counted along it

SMILES | sensitivity to inhibition by vismodegib (SMO-A459V) | sensitivity to vismodegib (SMO E518K) | sensitivity to inhibition by vismodegib (SMO L515A) | sensitivity to vismodegib (SMO E518A) | proliferation at high concentrations of vismodegib [1] | proliferation at high levels of vismodegib [2] | proliferation at high concentrations of vismodegib [3] | clinical outcome of BCC patients treated with vismodegib (advanced BCC) | proliferation in the presence of JQ1 [4]
CS(=O)(=O)c1ccc(C(=O)Nc2ccc(Cl)c(-c3ccccn3)c2)c(Cl)c1 [vismodegib] | decreased sensitivity; also recorded: reduced sensitivity | reduced sensitivity to | activating, sensitive | reduced sensitivity to | continued to proliferate | continuing to proliferate | continued to proliferate | clinical benefit | –
Cc1sc2c(c1C)C(c1ccc(Cl)cc1)=N[C@@H](CC(=O)OC(C)(C)C)c1nnc(C)n1-2 [JQ1] | – | – | – | – | – | – | – | – | reduced proliferation
